Like-named read-outs stand apart in the source and are kept apart here.
Tests used:
[1] = system: 3-hydroxylase (5-epi-aristolochene to 1-deoxycapsidiol); details: cited from earlier work
[2] = system: 5-epi-aristolochene hydroxylase (5EAH)
Experimental: (§1) The hexane solvent was removed under a gentle stream of N2 gas, and the dried residue was re-dissolved in acetone. […] Detection and quantification of capsidiol in the extracellular culture media was performed as reported previously (Chappell et al., Phytochemistry 26:2259-2260, 1987), and the amount of radioactivity incorporated into capsidiol was determined. For these determinations, samples were separated by TLC, and the zones corresponding to capsidiol were scraped from the plate for scintillation counting.
(§2) Inhibition studies were performed by the addition of the P450 inhibitors ancymidol (Coolbaugh et al., Plant Physiol. 62:571-576, 1978; Hoshino et al., Phytochemistry 38:609-613, 1995) and ketoconazole (Hoshino et al., Phytochemistry 38:609-613, 1995; Rademacher, Annu. Rev. Plant Physiol. Plant Mol. Biol. 51:501-531, 2000) directly to the cell cultures or enzyme assay mix. […] After a further 3 hour incubation period, the cells and media were collected. The amount of radioactivity incorporated into extracellular capsidiol was determined as described above. To evaluate secondary effects of these inhibitors, the level of inducible sesquiterpene cyclase activity in the collected cells was determined according to Vogeli et al. (Plant Physiol. 93:182-187, 1990), as well as in vitro assays with purified recombinant EAS (Back et al., Arch. Biochem. Biophys. 315:527-532, 1994) incubated with the indicated concentrations of ancymidol and ketoconazole.

[3] = molecular target: T1, 5-epi-aristolochene synthase (EAS) (Nicotiana tabacum, UniProt Q40577); assay: In vitro activity of purified recombinant EAS with inhibitors; assay type: biochemical
T1 construct: made in house
T1 sequence (Q40577 1-548): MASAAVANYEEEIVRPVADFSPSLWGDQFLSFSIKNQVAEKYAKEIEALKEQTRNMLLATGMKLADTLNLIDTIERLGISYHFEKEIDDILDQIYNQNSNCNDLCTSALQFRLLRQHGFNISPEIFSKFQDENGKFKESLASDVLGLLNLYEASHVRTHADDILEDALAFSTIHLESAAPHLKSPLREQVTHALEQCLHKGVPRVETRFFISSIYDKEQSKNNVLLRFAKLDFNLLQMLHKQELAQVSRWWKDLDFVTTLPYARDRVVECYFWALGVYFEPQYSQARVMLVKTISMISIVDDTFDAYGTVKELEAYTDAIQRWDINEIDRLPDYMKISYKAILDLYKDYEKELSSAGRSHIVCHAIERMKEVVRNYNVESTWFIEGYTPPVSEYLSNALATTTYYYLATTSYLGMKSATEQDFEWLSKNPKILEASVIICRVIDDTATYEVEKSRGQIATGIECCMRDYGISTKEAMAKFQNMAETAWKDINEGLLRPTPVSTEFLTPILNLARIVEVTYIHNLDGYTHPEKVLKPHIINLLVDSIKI
Experimental: The in vitro activity of a purified EAS preparation (Back and Chappell, J. Biol. Chem. 270:7375-7381, 1995) was also measured at the indicated inhibitor concentrations as an additional test for non-specific effects of these inhibitors (circles).

[4] = system: induction of EAS in elicitor-treated cell cultures; assay: Inducible sesquiterpene cyclase (EAS) activity in extracts of elicitor-treated cells; assay type: cell-based, Nicotiana tabacum; details: 12 h with cellulase
[5] = system: 5-epi-aristolochene hydroxylase (5EAH); assay: In vivo 5-epi-aristolochene hydroxylase assay in elicitor-treated tobacco cell suspension cultures; details: Nicotiana tabacum, read-out: inhibition of apparent activity of 5EAH
Experimental: as §1, §2

[6] = system: CYP71D20; details: 20 to 50 μM substrate, 2 mM NADPH, 1 mg/mL microsomal protein, 30° C.
Experimental: Reactions were carried out in 100 mM Tris-HCl, pH 7.5, to which microsomal protein was added to a final concentration of 1 mg/mL. Reactions were initiated by the addition of 2 mM NADPH. […] After incubations for variable lengths of time at 30° C., the reactions were extracted with two volumes of ethyl acetate. […] GC analysis was routinely performed with an HP5890 GC equipped with a Hewlett-Packard HP-5 capillary column (30 m×0.25 mm, 0.25 μm phase thickness) and FID as described previously (Rising et al., J. Am. Chem. Soc. 122:1861-1866, 2000). GC-MS analysis was performed at the University of Kentucky Mass Spectrometry Facility using a Varian 3400 gas chromatograph and a Finnigan INCOS 50 quadrupole mass selective detector. The GC was equipped with a J&W DB-5 ms capillary column (15 m×0.25 mm, 0.25 μm phase thickness) and run with He as the carrier gas (10 psi.). Splitless injections were done at an injection port temperature of 280° C. The column temperature was maintained at 40° C. for 1 minute and then increased to 280° C. at 10° C. per minute. Following separation by the GC column, samples were introduced directly into the electron impact ionization source. Mass spectra were acquired at 70 eV, scanning from 40-440 Da in 1 second.

[7] = microsomes incubated with 5-epi-aristolochene
[8] = concentrations as high as 100 μM

COc1ccc(C(O)(c2cncnc2)C2CC2)cc1 (stereo not shown) [ancymidol]
effect on 1-deoxycapsidiol accumulation in vitro [1, 7]: arrested
inhibition ([2]; 25 µM): ~50%
effect on in vitro activity of recombinant EAS [3, 8]: neither the in vitro activity of recombinant EAS nor the induction of EAS in the elicitor-treated cell cultures was significantly affected
effect on induction of EAS in elicitor-treated cell cultures [4, 8]: neither the in vitro activity of recombinant EAS nor the induction of EAS in the elicitor-treated cell cultures was significantly affected
inhibition at 75 µM [5]: > 80%

CC(=O)N1CCN(c2ccc(OCC3COC(Cn4ccnc4)(c4ccc(Cl)cc4Cl)O3)cc2)CC1 (stereo not shown) [ketoconazole]
effect on 1-deoxycapsidiol accumulation in vitro [1]: arrested
inhibition ([2]; 25 µM): ~50%
inhibition ([2]; 100 µM): 95%
effect on in vitro activity of EAS ([3]; indicated inhibitor concentrations (FIG. 3B)): does not appear to affect
concentration at which inducibility of cyclase activity in elicitor-treated cell extracts was inhibited [4]: above 50 μM

[C-]#[O+] [carbon monoxide]
effect on 1-deoxycapsidiol accumulation in vitro [1, 7]: arrested

C=C(C)[C@@H]1CC=C2CC[C@@H](O)[C@@H](C)[C@@]2(C)C1 [1-deoxycapsidiol]
metabolism by CYP71D20 microsomes (GC, GC-MS of products) [6]: metabolized to only one product with the same retention time as capsidiol

C=C(C)[C@@H]1CC=C2CCC[C@@H](C)[C@@]2(C)C1 [5-epi-aristolochene]
metabolism by CYP71D20 microsomes (GC, GC-MS of products) [6]: metabolized to only one product with the same retention time as capsidiol
